From US20140163050A1, “Use of 1H-quinazoline-2,4-diones” (priority 2011, published 2014)

What follows are compounds tested on mouse (assay: Oral bioavailability: in vivo orally active (audiogenic mouse test and/or MES test)). Conditions: not given.
Method: The oral bioavailability was tested using the audiogenic mouse test (Audiogenic seizures, R. L. Collins; Chapter 14, pages: 347-372. In: Experimental Models of Epilepsy; By: Pupura, Penry, Tower, Woodbury, Walter, Raven Press, New York, 1972. Standard Book Number: 0-911216-26-X) and/or the MES test.

| SMILES | In vivo orally active |
| --- | --- |
| CC(O)c1cc2c(=O)n(NS(C)(=O)=O)c(=O)[nH]c2cc1C(F)(F)F (stereo not drawn) [Compound A-1, N-[6-(1-Hydroxy-ethyl)-2,4-dioxo-7-trifluoromethyl-1,4-dihydro-2H-quinazolin-3-yl]-methanesulfonamide] | Yes |
| COC(C)c1cc2c(=O)n(NS(C)(=O)=O)c(=O)[nH]c2cc1C(F)(F)F (stereo not drawn) [Compound A-2, N-[6-(1-Methoxy-ethyl)-2,4-dioxo-7-trifluoromethyl-1,4-dihydro-2H-quinazolin-3-yl]-methanesulfonamide] | Yes |
| CCC(O)c1cc2c(=O)n(NS(C)(=O)=O)c(=O)[nH]c2cc1C(F)(F)F (stereo not drawn) [Compound A-3, N-[6-(1-Hydroxy-propyl)-2,4-dioxo-7-trifluoromethyl-1,4-dihydro-2H-quinazolin-3-yl]-methanesulfonamide] | Yes |
| CC(C)OC(C)c1cc2c(=O)n(NS(C)(=O)=O)c(=O)[nH]c2cc1C(F)(F)F (stereo not drawn) [Compound A-4, N-[6-(1-Isopropoxy-ethyl)-2,4-dioxo-7-trifluoromethyl-1,4-dihydro-2H-quinazolin-3-yl]-methanesulfonamide] | Yes |
| CCOC(C)c1cc2c(=O)n(NS(C)(=O)=O)c(=O)[nH]c2cc1C(F)(F)F (stereo not drawn) [Compound A-5, N-[6-(1-Ethoxy-ethyl)-2,4-dioxo-7-trifluoromethyl-1,4-dihydro-2H-quinazolin-3-yl]methanesulfonamide] | yes |
| CCCOC(CC)c1cc2c(=O)n(NS(C)(=O)=O)c(=O)[nH]c2cc1C(F)(F)F (stereo not drawn) [Compound A-6, N-[2,4-Dioxo-6-(1-propoxy-propyl)-7-trifluoromethyl-1,4-dihydro-2H-quinazolin-3-yl]-methanesulfonamide] | Yes |
| CCC(OC(C)C)c1cc2c(=O)n(NS(C)(=O)=O)c(=O)[nH]c2cc1C(F)(F)F (stereo not drawn) [Compound A-7, N-[6-(1-isopropoxy-propyl)-2,4-dioxo-7-trifluoromethyl-1,4-dihydro-2H-quinazolin-3-yl]-methanesulfonamide] | Yes |
| CCOC(CC)c1cc2c(=O)n(NS(C)(=O)=O)c(=O)[nH]c2cc1C(F)(F)F (stereo not drawn) [Compound A-13, N-[6-(1-Ethoxy-propyl)-2,4-dioxo-7-trifluoromethyl-1,4-dihydro-2H-quinazolin-3-yl]-methanesulfonamide] | Yes |
| CC(OC1CCCC1)c1cc2c(=O)n(NS(C)(=O)=O)c(=O)[nH]c2cc1C(F)(F)F (stereo not drawn) [Compound A-14, N-[6-(1-Cyclopentyloxy-ethyl)-2,4-dioxo-7-trifluoromethyl-1,4-dihydro-2H-quinazolin-3-yl]-methanesulfonamide] | yes |
| CCCC(O)c1cc2c(=O)n(NS(C)(=O)=O)c(=O)[nH]c2cc1C(F)(F)F (stereo not drawn) [Compound A-15, N-[6-(1-Hydroxy-butyl)-2,4-dioxo-7-trifluoromethyl-1,4-dihydro-2H-quinazolin-3-yl]-methanesulfonamide] | Yes |
| COCCC(O)c1cc2c(=O)n(NS(C)(=O)=O)c(=O)[nH]c2cc1C(F)(F)F (stereo not drawn) [Compound A-18, N-[6-(1-Hydroxy-3-methoxy-propyl)-2,4-dioxo-7-trifluoromethyl-1,4-dihydro-2H-quinazolin-3-yl]-methanesulfonamide] | Yes |
| CS(=O)(=O)Nn1c(=O)[nH]c2cc(C(F)(F)F)c(C3CCCO3)cc2c1=O (stereo not drawn) [Compound B-2, N-[2,4-Dioxo-6-(tetrahydro-furan-2-yl)-7-trifluoromethyl-1,4-dihydro-2H-quinazolin-3-yl]-methanesulfonamide] | Yes |
| COCCn1nccc1-c1cc2c(=O)n(NS(C)(=O)=O)c(=O)[nH]c2cc1C(C)C [Compound C-1, N-{7-Isopropyl-6-[2-(2-methoxy-ethyl)-2H-pyrazol-3-yl]-2,4-dioxo-1,4-dihydro-2H-quinazolin-3-yl}-methanesulfonamide] | yes |
| CC(C)n1nccc1-c1cc2c(=O)n(NS(C)(=O)=O)c(=O)[nH]c2cc1C(F)(F)F [Compound C-2, N-[6-(2-Isopropyl-2H-pyrazol-3-yl)-2,4-dioxo-7-trifluoromethyl-1,4-dihydro-2H-quinazolin-3-yl]-methanesulfonamide] | Yes |
| CC(C)n1nccc1-c1cc2c(=O)n(NS(C)(=O)=O)c(=O)[nH]c2cc1CF [Compound C-3, N-[7-Fluoromethyl-6-(2-isopropyl-2H-pyrazol-3-yl)-2,4-dioxo-1,4-dihydro-2H-quinazolin-3-yl]-methanesulfonamide] | Yes |
| COCCn1nccc1-c1cc2c(=O)n(NS(C)(=O)=O)c(=O)[nH]c2cc1C(F)(F)F [Compound C-4, N-{6-[2-(2-Methoxy-ethyl)-2H-pyrazol-3-yl]-2,4-dioxo-7-trifluoromethyl-1,4-dihydro-2H-quinazolin-3-yl}-methanesulfonamide] | Yes |
| CS(=O)(=O)Nn1c(=O)[nH]c2cc(C(F)(F)F)c(-c3ccnn3O)cc2c1=O [Compound C-5, N-[6-(2-Hydroxy-2H-pyrazol-3-yl)-2,4-dioxo-7-trifluoromethyl-1,4-dihydro-2H-quinazolin-3-yl]-methanesulfonamide] | Yes |
| CCc1cc2[nH]c(=O)n(NS(C)(=O)=O)c(=O)c2cc1-c1ccnn1C(C)C [Compound C-6, N-[7-Ethyl-6-(2-isopropyl-2H-pyrazol-3-yl)-2,4-dioxo-1,4-dihydro-2H-quinazolin-3-yl]-methanesulfonamide] | yes |
| CC(C)c1cc2[nH]c(=O)n(NS(C)(=O)=O)c(=O)c2cc1-c1ccnn1C(C)C [Compound C-8, N-[7-Isopropyl-6-(2-isopropyl-2H-pyrazol-3-yl)-2,4-dioxo-1,4-dihydro-2H-quinazolin-3-yl]-methanesulfonamide] | yes |
| Cn1nccc1-c1cc2c(=O)n(NS(C)(=O)=O)c(=O)[nH]c2cc1C(F)F [Compound C-9, N-[7-Difluoromethyl-6-(2-methyl-2H-pyrazol-3-yl)-2,4-dioxo-1,4-dihydro-2H-quinazolin-3-yl]-methanesulfonamide] | Yes |
| CC(C)n1nccc1-c1cc2c(=O)n(NS(C)(=O)=O)c(=O)[nH]c2cc1C(F)F [Compound C-10, N-[7-Difluoromethyl-6-(2-isopropyl-2H-pyrazol-3-yl)-2,4-dioxo-1,4-dihydro-2H-quinazolin-3-yl]-methanesulfonamide] | Yes |
| CCc1cc2[nH]c(=O)n(NS(C)(=O)=O)c(=O)c2cc1-c1ccnn1C [Compound C-11, N-[7-Ethyl-6-(2-methyl-2H-pyrazol-3-yl)-2,4-dioxo-1,4-dihydro-2H-quinazolin-3-yl]-methanesulfonamide] | Yes |
| CCc1cc2[nH]c(=O)n(NS(C)(=O)=O)c(=O)c2cc1-c1ccnn1CC [Compound C-12, N-[7-Ethyl-6-(2-ethyl-2H-pyrazol-3-yl)-2,4-dioxo-1,4-dihydro-2H-quinazolin-3-yl]-methanesulfonamide] | Yes |
| Cn1nccc1-c1cc2c(=O)n(NS(C)(=O)=O)c(=O)[nH]c2cc1C(C)(F)F [Compound C-15, N-[7-(1,1-difluoro-ethyl)-6-(2-methyl-2H-pyrazol-3-yl)-2,4-dioxo-1,4-dihydro-2H-quinazolin-3-yl]-methanesulfonamide] | Yes |
| CC(C)n1nccc1-c1cc2c(=O)n(NS(C)(=O)=O)c(=O)[nH]c2cc1C(C)(F)F [Compound C-16, N-[7-(1,1-difluoro-ethyl)-6-(2-isopropyl-2H-pyrazol-3-yl)-2,4-dioxo-1,4-dihydro-2H-quinazolin-3-yl]-methanesulfonamide] | Yes |
| CC(F)c1cc2[nH]c(=O)n(NS(C)(=O)=O)c(=O)c2cc1-c1ccnn1C(C)C (stereo not drawn) [Compound C-17, N-[7-(1-fluoro-ethyl)-6-(2-isopropyl-2H-pyrazol-3-yl)-2,4-dioxo-1,4-dihydro-2H-quinazolin-3-yl]-methanesulfonamide] | Yes |
| Cn1nccc1-c1cc2c(=O)n(NS(C)(=O)=O)c(=O)[nH]c2cc1C(F)(F)F [Compound C-18, N-[6-(2-Methyl-2H-pyrazol-3-yl)-2,4-dioxo-7-trifluoromethyl-1,4-dihydro-2H-quinazolin-3-yl]-methanesulfonamide] | Yes |

What follows are compounds tested on OF1 mice (assay: maximal electroshock test (MES Test)). Conditions: p.o., 1 h, @ 20 (mg/kg).
Type: in vivo, mouse
Method: Compounds of the invention were tested in OF1 mice using the maximal electroshock test (MES Test) described in detail by Schmutz et al., Naunyn-Schmiedeberg's Arch Pharmacol 1990, 342, 61-66. Briefly, generalized tonic-clonic convulsions of the hind extremities were induced by passing electrical current through temporal electrodes (50 Hz, 18 mA, 0.2 s). […] 30 mg/kg carbamazepine was used as a positive control; mice were classified as protected by a compound If the duration of the seizure lasted only 3 second or less. Five mice were used for each treatment condition and the percentage of protected mice was used as readout (i.e. a compound could give 0%, 20%, 40%, 60%, 80% or 100% protection). […]
ED50 values (ED: effective dose) were calculated using GraphPad Prism, v4.02.

| SMILES | MES-Test (1 h, po) protection [% @ 20] |
| --- | --- |
| Cn1nccc1-c1cc2c(=O)n(NS(C)(=O)=O)c(=O)[nH]c2cc1C(C)(F)F [Compound C-15, N-[7-(1,1-difluoro-ethyl)-6-(2-methyl-2H-pyrazol-3-yl)-2,4-dioxo-1,4-dihydro-2H-quinazolin-3-yl]-methanesulfonamide] | 80 |

Same assay, conditions: p.o., 1 h, @ 25 (mg/kg)

| SMILES | MES-Test (1 h, po) protection [% @ 25] |
| --- | --- |
| COCCn1nccc1-c1cc2c(=O)n(NS(C)(=O)=O)c(=O)[nH]c2cc1C(C)C [Compound C-1, N-{7-Isopropyl-6-[2-(2-methoxy-ethyl)-2H-pyrazol-3-yl]-2,4-dioxo-1,4-dihydro-2H-quinazolin-3-yl}-methanesulfonamide] | 40 |

Same assay, conditions: p.o., 1 h, @ 50 (mg/kg)

| SMILES | MES-Test (1 h, po) protection [% @ 50] |
| --- | --- |
| CCc1cc2[nH]c(=O)n(NS(C)(=O)=O)c(=O)c2cc1-c1ccnn1C(C)C [Compound C-6, N-[7-Ethyl-6-(2-isopropyl-2H-pyrazol-3-yl)-2,4-dioxo-1,4-dihydro-2H-quinazolin-3-yl]-methanesulfonamide] | 20 |
| CC(C)c1cc2[nH]c(=O)n(NS(C)(=O)=O)c(=O)c2cc1-c1ccnn1C(C)C [Compound C-8, N-[7-Isopropyl-6-(2-isopropyl-2H-pyrazol-3-yl)-2,4-dioxo-1,4-dihydro-2H-quinazolin-3-yl]-methanesulfonamide] | 40 |

Same assay, conditions: p.o., pre-treatment time 1 h

| SMILES | MES-Test (1 h, po) ED50 [mg/kg] |
| --- | --- |
| CS(=O)(=O)Nn1c(=O)[nH]c2cc(C(F)(F)F)c(C3CCCO3)cc2c1=O [B-2 (R), N-[2,4-Dioxo-6-(tetrahydro-furan-2-yl)-7-trifluoromethyl-1,4-dihydro-2H-quinazolin-3-yl]-methanesulfonamide] | 12.8 |
| CS(=O)(=O)Nn1c(=O)[nH]c2cc(C(F)(F)F)c(C3CCCO3)cc2c1=O [B-2 (S), N-[2,4-Dioxo-6-(tetrahydro-furan-2-yl)-7-trifluoromethyl-1,4-dihydro-2H-quinazolin-3-yl]-methanesulfonamide] | 33.2 |
